Measurements: patent publication US20250042876A1, “HERBICIDAL PYRAZOLE PYRIMIDINE COMPOUNDS” (SYNGENTA CROP PROTECTION AG, priority 2021, published 2025)

Experiments:
Format in all cases: in vivo
Conditions in all cases: 250 g/ha, evaluated after 13 days
[1] = test system: Ipomoea hederacea (IPOHE); test: Pre-emergence herbicidal test, glasshouse
Protocol: (§1) Seeds of a variety of test species are sown in standard soil in pots Amaranthus palmeri (AMAPA), Amaranthus retoflexus (AMARE), Setaria faberi (SETFA), Echinochloa crus-galli (ECHCG), Ipomoea hederacea (IPOHE)). After cultivation for one day (pre-emergence) or after 8 days cultivation (post-emergence) under controlled conditions in a glasshouse (at 24/16° C., day/night; 14 hours light; 65% humidity), the plants are sprayed with an aqueous spray solution derived from the formulation of the technical active ingredient in acetone/water (50:50) solution containing 0.5% Tween 20 (polyoxyethelyene sorbitan monolaurate, CAS RN 9005-64-5). Compounds are applied at 250 g/ha unless otherwise stated. The test plants are then grown in a glasshouse under controlled conditions in a glasshouse (at 24/16° C., day/night; 14 hours light; 65% humidity) and watered twice daily. After 13 days for pre and post-emergence, the test is evaluated for the percentage damage caused to the plant. The biological activities are shown in the following table on a five-point scale (5=81-100%; 4=61-80%; 3=41-60%; 2=21-40%; 1=0-20%).

[2] = test system: Amaranthus palmeri (AMAPA); test: Pre-emergence herbicidal test, glasshouse
Protocol: as §1

[3] = test system: Echinochloa crus-galli (ECHCG); test: Pre-emergence herbicidal test, glasshouse
Protocol: as §1

[4] = test system: Amaranthus retoflexus (AMARE); test: Pre-emergence herbicidal test, glasshouse
Protocol: as §1

[5] = test system: Ipomoea hederacea (IPOHE); test: Post-emergence herbicidal test, glasshouse
Protocol: as §1

[6] = test system: Amaranthus palmeri (AMAPA); test: Post-emergence herbicidal test, glasshouse
Protocol: as §1

[7] = test system: Echinochloa crus-galli (ECHCG); test: Post-emergence herbicidal test, glasshouse
Protocol: as §1

[8] = test system: Amaranthus retoflexus (AMARE); test: Post-emergence herbicidal test, glasshouse
Protocol: as §1

Structure (SMILES)	IPOHE percentage damage caused to the plant (five-point scale) [1]	AMAPA percentage damage caused to the plant (five-point scale) [2]	ECHCG percentage damage caused to the plant (five-point scale) [3]	AMARE percentage damage caused to the plant (five-point scale) [4]	IPOHE percentage damage caused to the plant (five-point scale) [5]	AMAPA percentage damage caused to the plant (five-point scale) [6]	ECHCG percentage damage caused to the plant (five-point scale) [7]	AMARE percentage damage caused to the plant (five-point scale) [8]
CS(=O)(=O)c1ccc(-n2nc(C(F)F)cc2Cc2ncc(Cl)cn2)cc1 [Compound 1.027]	5 (5=81-100%)	5 (5=81-100%)	5 (5=81-100%)	5 (5=81-100%)	5 (5=81-100%)	5 (5=81-100%)	5 (5=81-100%)	5 (5=81-100%)
N#Cc1ccc(-n2nc(C(F)F)cc2Cc2ncc(Cl)cn2)cc1 [Compound 1.028]	5 (5=81-100%)	5 (5=81-100%)	5 (5=81-100%)	5 (5=81-100%)	4 (4=61-80%)	5 (5=81-100%)	5 (5=81-100%)	5 (5=81-100%)
FC(F)c1cc(Cc2ncc(Cl)cn2)n(-c2ccc(Cl)cc2)n1 [Compound 1.029]	5 (5=81-100%)	5 (5=81-100%)	5 (5=81-100%)	5 (5=81-100%)	4 (4=61-80%)	5 (5=81-100%)	4 (4=61-80%)	5 (5=81-100%)
FC(F)c1cc(Cc2ncc(Cl)cn2)n(-c2cnc(Cl)c(Cl)c2)n1 [Compound 1.030]	4 (4=61-80%)	5 (5=81-100%)	5 (5=81-100%)	5 (5=81-100%)	4 (4=61-80%)	5 (5=81-100%)	4 (4=61-80%)	5 (5=81-100%)
FC(F)c1cc(Cc2ncc(Cl)cn2)n(-c2cccc(Cl)c2)n1 [Compound 1.031]	5 (5=81-100%)	5 (5=81-100%)	5 (5=81-100%)	5 (5=81-100%)	4 (4=61-80%)	4 (4=61-80%)	4 (4=61-80%)	5 (5=81-100%)
Fc1ccc(-n2nc(C(F)F)cc2Cc2ncc(Cl)cn2)cc1F [Compound 1.032, 5-chloro-2-[[5-(difluoromethyl)-2-(3,4-difluorophenyl)pyrazol-3-yl]methyl]pyrimidine]	5 (5=81-100%)	5 (5=81-100%)	5 (5=81-100%)	5 (5=81-100%)	4 (4=61-80%)	5 (5=81-100%)	4 (4=61-80%)	5 (5=81-100%)
Fc1ccc(-n2nc(C(F)F)cc2Cc2ncc(Cl)cn2)cc1 [Compound 1.033]	5 (5=81-100%)	5 (5=81-100%)	5 (5=81-100%)	5 (5=81-100%)	4 (4=61-80%)	5 (5=81-100%)	4 (4=61-80%)	5 (5=81-100%)
FC(F)(F)c1ccc(-n2nc(C(F)(F)F)c(Cl)c2Cc2ncc(Br)cn2)cc1 [Compound 1.034, 5-bromo-2-[[4-chloro-5-(trifluoromethyl)-2-[4-(trifluoromethyl)phenyl]pyrazol-3-yl]methyl]pyrimidine]	5 (5=81-100%)	5 (5=81-100%)	5 (5=81-100%)	5 (5=81-100%)	4 (4=61-80%)	5 (5=81-100%)	4 (4=61-80%)	4 (4=61-80%)
